Test results from PubChem BioAssay (NCI).
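Each compound was tested at five concentrations against cells in 96-well plates for 48 hours. The concentration for full growth arrest is given as TGI.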

What was measured:
Experiment in all cases: NCI tumour cell line growth inhibition, 48 h
ACHN renal = tested on: ACHN renal
CAKI-1 renal = tested on: CAKI-1 renal
HCT-15 colon = tested on: HCT-15 colon
HOP-92 NSCLC = tested on: HOP-92 NSCLC
M14 melanoma = tested on: M14 melanoma
MALME-3M melanoma = tested on: MALME-3M melanoma
OVCAR-3 ovarian = tested on: OVCAR-3 ovarian
OVCAR-4 ovarian = tested on: OVCAR-4 ovarian
SK-MEL-5 melanoma = tested on: SK-MEL-5 melanoma
SNB-19 CNS = tested on: SNB-19 CNS
SW-620 colon = tested on: SW-620 colon
TK-10 renal = tested on: TK-10 renal
U251 CNS = tested on: U251 CNS
UACC-62 melanoma = tested on: UACC-62 melanoma
UO-31 renal = tested on: UO-31 renal
SR leukemia = tested on: SR leukemia
MCF7 breast = tested on: MCF7 breast
MDA-MB-231 breast = tested on: MDA-MB-231 breast
NCI/ADR-RES ovarian = tested on: NCI/ADR-RES ovarian
DU-145 prostate = tested on: DU-145 prostate

SMILES | TGI (ACHN renal) | TGI (CAKI-1 renal) | TGI (HCT-15 colon) | TGI (HOP-92 NSCLC) | TGI (M14 melanoma) | TGI (MALME-3M melanoma) | TGI (OVCAR-3 ovarian) | TGI (OVCAR-4 ovarian) | TGI (SK-MEL-5 melanoma) | TGI (SNB-19 CNS) | TGI (SW-620 colon) | TGI (TK-10 renal) | TGI (U251 CNS) | TGI (UACC-62 melanoma) | TGI (UO-31 renal) | TGI (SR leukemia) | TGI (MCF7 breast) | TGI (MDA-MB-231 breast) | TGI (NCI/ADR-RES ovarian) | TGI (DU-145 prostate)
COC(=O)CC(C(C(=O)OC)C(=O)OC)N1C(=O)OC(c2ccccc2)C1c1ccccc1 (configuration not stated) | > 100 µM | 39 µM | > 100 µM | > 100 µM | > 100 µM | > 100 µM | > 100 µM | > 100 µM | > 100 µM | > 100 µM | 74.3 µM | > 100 µM | > 100 µM | > 100 µM | > 100 µM | – | – | – | – | –
COc1cc2c(oc(=O)c3cc4cc([Si](C)(C)C)oc4c(OC)c32)c2cccc(O)c12 | > 100 µM | > 100 µM | > 100 µM | > 100 µM | > 100 µM | > 100 µM | > 100 µM | > 100 µM | > 100 µM | > 100 µM | > 100 µM | > 100 µM | > 100 µM | > 100 µM | > 100 µM | > 100 µM | – | – | – | –
CCN(CC)C(=S)SCC(=O)Nc1nc2c(s1)CCCC2 | > 100 µM | – | > 100 µM | > 100 µM | > 100 µM | > 100 µM | – | > 100 µM | 49.7 µM | > 100 µM | > 100 µM | > 100 µM | > 100 µM | – | > 100 µM | 90.7 µM | – | – | – | –
COc1ccc(OC)c(NC(=O)C(=O)CC(=O)c2sc(-n3nc(-c4ccccc4)cc3-c3ccccc3)nc2C)c1 | – | > 100 µM | > 100 µM | – | > 100 µM | > 100 µM | > 100 µM | > 100 µM | – | > 100 µM | > 100 µM | > 100 µM | > 100 µM | > 100 µM | > 100 µM | > 100 µM | – | – | – | –
C=CCCCN1CCCC(C)C1=S (configuration not stated) | > 100 µM | – | > 100 µM | > 100 µM | > 100 µM | > 100 µM | > 100 µM | > 100 µM | > 100 µM | > 100 µM | > 100 µM | > 100 µM | > 100 µM | > 100 µM | > 100 µM | > 100 µM | – | – | – | –
CC1(C)Cc2c(oc3ncnc(N)c23)CS1 | > 100 µM | > 100 µM | > 100 µM | – | > 100 µM | > 100 µM | > 100 µM | > 100 µM | > 100 µM | > 100 µM | > 100 µM | – | > 100 µM | > 100 µM | > 100 µM | > 100 µM | – | – | – | –
CN(/N=C/c1ccccn1)C1=NCCCN1 | > 100 µM | > 100 µM | > 100 µM | > 100 µM | > 100 µM | > 100 µM | > 100 µM | > 100 µM | > 100 µM | > 100 µM | > 100 µM | > 100 µM | > 100 µM | > 100 µM | > 100 µM | > 100 µM | > 100 µM | > 100 µM | > 100 µM | –
Nc1cc2ncnn2c(SCC(=O)N/N=C/C(Br)=C\c2ccccc2)n1 | 62.7 µM | 37.2 µM | 37.1 µM | – | – | 28.3 µM | 40.5 µM | – | 26.2 µM | > 100 µM | 30.5 µM | 72.3 µM | 20.7 µM | – | 32 µM | > 100 µM | 38.8 µM | 40 µM | 91.8 µM | –
COC(=O)CN1C(=O)C2(C(=O)OC)OC1(c1ccc([N+](=O)[O-])cc1)C1C(=O)N(c3ccccc3)C(=O)C12 (configuration not stated) | > 100 µM | > 100 µM | > 100 µM | – | > 100 µM | > 100 µM | – | > 100 µM | > 100 µM | > 100 µM | > 100 µM | > 100 µM | > 100 µM | > 100 µM | > 100 µM | – | – | > 100 µM | > 100 µM | > 100 µM
CC(C)(C)[C@H]1CO[C@]2(c3ccccc3)[C@@H]3C[C@@H]3C(=O)N12 | > 100 µM | > 100 µM | > 100 µM | > 100 µM | > 100 µM | > 100 µM | > 100 µM | > 100 µM | > 100 µM | > 100 µM | > 100 µM | > 100 µM | > 100 µM | > 100 µM | > 100 µM | > 100 µM | – | – | – | –
NC(CCP(=O)(O)O)C(=O)O (configuration not stated) | > 100 µM | > 100 µM | > 100 µM | > 100 µM | > 100 µM | > 100 µM | > 100 µM | > 100 µM | > 100 µM | > 100 µM | > 100 µM | > 100 µM | > 100 µM | > 100 µM | > 100 µM | > 100 µM | – | > 100 µM | > 100 µM | –
N#CC(C#N)=c1c2ccccc2c(=C(C#N)C#N)c2ccccc12 | 43.3 µM | 28.6 µM | 65 µM | 88.6 µM | 32.8 µM | – | 30 µM | – | 31 µM | 32.4 µM | 82.8 µM | – | 55.4 µM | 28.5 µM | – | – | > 100 µM | 32.9 µM | 72.4 µM | –
S=C(N/N=C/c1ccccn1)N1CC2CCC(CC2)C1 | 2.15 µM | 1.82 µM | 14.9 µM | 13.9 µM | 0.209 µM | 11.4 µM | 13.9 µM | 20.4 µM | – | 14.3 µM | 14.5 µM | 1.82 µM | 4.6 µM | 0.531 µM | 2.24 µM | – | – | – | – | 12 µM
CN1C(=O)C(C(=O)Nc2ccccn2)C2C[C@@]1(C)Oc1ccccc12 (some centres not stated) | > 100 µM | > 100 µM | > 100 µM | > 100 µM | > 100 µM | > 100 µM | > 100 µM | > 100 µM | > 100 µM | > 100 µM | > 100 µM | > 100 µM | > 100 µM | > 100 µM | > 100 µM | – | – | > 100 µM | > 100 µM | > 100 µM
O=C1c2ccccc2C(=O)c2c(NC(=O)C3CC3)ccc(NC(=O)C3CC3)c21 | > 100 µM | – | > 100 µM | – | – | > 100 µM | > 100 µM | – | > 100 µM | > 100 µM | > 100 µM | > 100 µM | > 100 µM | > 100 µM | > 100 µM | > 100 µM | > 100 µM | > 100 µM | > 100 µM | –
